# Paper PMC9270327 (Communications Biology, 2022)
# Assays:
# [1] = target: TMPRSS2 (Homo sapiens, UniProt O15393); assay: Cell culture medium stability: residual TMPRSS2 inhibition after incubation in medium
# Experimental: The activity of the compounds against the recombinant human enzymes was determined in enzyme inhibition assays. […] The measurements were performed on a Tecan infinite® M1000 and the fluorescence intensity was measured by exciting the AMC fluorophore at 380 nm wavelength and recording emission at 460 nm wavelength. […] Fluorescence intensities and absorption were measured every 2 min for 2 h or as endpoint after 2 h. […] To determine the IC50 values, the concentration-response data were plotted with the program GraphPad prism version 8.4.2 (San Diego, California) and a nonlinear regression fit with the equation [Inhibitor] vs. normalized response was applied. The inhibitory constant Ki was calculated from the IC50 values using the Cheng–Prusoff equation (Ki = IC50/[S]/KM) for competitive reversible inhibitors[66].
# The stability of the inhibitors was measured according to a modified procedure from ref. [67]. […] At indicated timepoints, 100 µL samples were taken and mixed with 200 µL of ethanol to precipitate proteins. […] The supernatant was aspirated and analyzed using analytical HPLC. The residual inhibitory constants Ki after incubation was assessed by mixing serial dilutions of the inhibitor with recombinant TMPRSS2 as described above.
# were mixed with recombinant TMPRSS2, followed by the addition of the fluorogenic reference
# Shown are the means ± SD of n=1 experiment performed in triplicates.
# [2] = target: T1, recombinant human thrombin (Homo sapiens, UniProt P00734); assay: Enzyme inhibition assay with purified thrombin (Ki, dose-response); format: biochemical; details: normalized, 0 nM = 100
# T1 construct: purchased R&D Systems (Minneapolis, MN, USA)
# From the text: Recombinant human TMPRSS2 was purchased from Creative BioMart (New York, USA) or LSBio (Seattle, USA), factor Xa was obtained from Bio-Techne GmbH (Wiesbaden, Germany). Recombinant human thrombin and matriptase protein were purchased from R&D Systems (Minneapolis, MN, USA).
# TMPRSS2, sequence (O15393 whole entry): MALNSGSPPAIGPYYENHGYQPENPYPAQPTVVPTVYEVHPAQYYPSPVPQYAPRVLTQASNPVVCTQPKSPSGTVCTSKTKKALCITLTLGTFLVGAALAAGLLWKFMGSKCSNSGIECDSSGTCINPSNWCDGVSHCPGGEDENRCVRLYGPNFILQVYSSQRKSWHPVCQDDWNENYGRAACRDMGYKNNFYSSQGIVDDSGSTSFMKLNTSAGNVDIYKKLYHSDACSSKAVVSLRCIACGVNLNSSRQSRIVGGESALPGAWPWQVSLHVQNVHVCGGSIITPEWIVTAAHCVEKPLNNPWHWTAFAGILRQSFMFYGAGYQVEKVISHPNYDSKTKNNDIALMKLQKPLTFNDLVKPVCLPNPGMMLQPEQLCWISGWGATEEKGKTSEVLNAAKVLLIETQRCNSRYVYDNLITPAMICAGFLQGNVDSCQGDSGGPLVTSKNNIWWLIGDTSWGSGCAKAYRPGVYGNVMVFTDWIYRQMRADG
substance,measurement,setting,value
ace-Arg-Pro-Arg-kbt [Compound 2],"Residual TMPRSS2 activity, Mean (0 nM = 100)","[1]; inhibitor 0.0167 nM, 0 min in cell culture medium",98.9717
same,"Residual TMPRSS2 activity, Mean (0 nM = 100)","[1]; inhibitor 0.0167 nM, 30 min in cell culture medium",101.323
same,"Residual TMPRSS2 activity, Mean (0 nM = 100)","[1]; inhibitor 0.0167 nM, 60 min in cell culture medium",96.8723
same,"Residual TMPRSS2 activity, Mean (0 nM = 100)","[1]; inhibitor 0.0167 nM, 120 min in cell culture medium",98.5343
same,"Residual TMPRSS2 activity, Mean (0 nM = 100)","[1]; inhibitor 0.0167 nM, 24 h in cell culture medium",98.1961
same,"Residual TMPRSS2 activity, Mean (0 nM = 100)","[1]; inhibitor 0.0167 nM, 10 d in cell culture medium",98.4437
same,"Residual TMPRSS2 activity, Mean (0 nM = 100)","[1]; inhibitor 0.0167 nM, positive ctrl",97.6368
same,"Residual TMPRSS2 activity, Mean (0 nM = 100)","[1]; inhibitor 0.167 nM, 0 min in cell culture medium",100.63
same,"Residual TMPRSS2 activity, Mean (0 nM = 100)","[1]; inhibitor 0.167 nM, 30 min in cell culture medium",100.761
same,"Residual TMPRSS2 activity, Mean (0 nM = 100)","[1]; inhibitor 0.167 nM, 60 min in cell culture medium",103.84
same,"Residual TMPRSS2 activity, Mean (0 nM = 100)","[1]; inhibitor 0.167 nM, 120 min in cell culture medium",96.4654
same,"Residual TMPRSS2 activity, Mean (0 nM = 100)","[1]; inhibitor 0.167 nM, 24 h in cell culture medium",97.7945
same,"Residual TMPRSS2 activity, Mean (0 nM = 100)","[1]; inhibitor 0.167 nM, 10 d in cell culture medium",101.036
same,"Residual TMPRSS2 activity, Mean (0 nM = 100)","[1]; inhibitor 0.167 nM, positive ctrl",98.5654
same,"Residual TMPRSS2 activity, Mean (0 nM = 100)","[1]; inhibitor 1.665 nM, 0 min in cell culture medium",97.2536
same,"Residual TMPRSS2 activity, Mean (0 nM = 100)","[1]; inhibitor 1.665 nM, 30 min in cell culture medium",96.1305
same,"Residual TMPRSS2 activity, Mean (0 nM = 100)","[1]; inhibitor 1.665 nM, 60 min in cell culture medium",95.956
same,"Residual TMPRSS2 activity, Mean (0 nM = 100)","[1]; inhibitor 1.665 nM, 120 min in cell culture medium",95.462
same,"Residual TMPRSS2 activity, Mean (0 nM = 100)","[1]; inhibitor 1.665 nM, 24 h in cell culture medium",97.8646
same,"Residual TMPRSS2 activity, Mean (0 nM = 100)","[1]; inhibitor 1.665 nM, 10 d in cell culture medium",97.0442
same,"Residual TMPRSS2 activity, Mean (0 nM = 100)","[1]; inhibitor 1.665 nM, positive ctrl",88.6541
same,"Residual TMPRSS2 activity, Mean (0 nM = 100)","[1]; inhibitor 16.65 nM, 0 min in cell culture medium",83.5545
same,"Residual TMPRSS2 activity, Mean (0 nM = 100)","[1]; inhibitor 16.65 nM, 30 min in cell culture medium",80.8705
same,"Residual TMPRSS2 activity, Mean (0 nM = 100)","[1]; inhibitor 16.65 nM, 60 min in cell culture medium",72.3193
same,"Residual TMPRSS2 activity, Mean (0 nM = 100)","[1]; inhibitor 16.65 nM, 120 min in cell culture medium",83.5842
same,"Residual TMPRSS2 activity, Mean (0 nM = 100)","[1]; inhibitor 16.65 nM, 24 h in cell culture medium",87.4426
same,"Residual TMPRSS2 activity, Mean (0 nM = 100)","[1]; inhibitor 16.65 nM, 10 d in cell culture medium",88.0057
same,"Residual TMPRSS2 activity, Mean (0 nM = 100)","[1]; inhibitor 16.65 nM, positive ctrl",59.7774
same,"Residual TMPRSS2 activity, Mean (0 nM = 100)","[1]; inhibitor 166.5 nM, 0 min in cell culture medium",18.9266
same,"Residual TMPRSS2 activity, Mean (0 nM = 100)","[1]; inhibitor 166.5 nM, 30 min in cell culture medium",17.6545
same,"Residual TMPRSS2 activity, Mean (0 nM = 100)","[1]; inhibitor 166.5 nM, 60 min in cell culture medium",24.0301
same,"Residual TMPRSS2 activity, Mean (0 nM = 100)","[1]; inhibitor 166.5 nM, 120 min in cell culture medium",22.2899
same,"Residual TMPRSS2 activity, Mean (0 nM = 100)","[1]; inhibitor 166.5 nM, 24 h in cell culture medium",22.0487
same,"Residual TMPRSS2 activity, Mean (0 nM = 100)","[1]; inhibitor 166.5 nM, 10 d in cell culture medium",39.6688
same,"Residual TMPRSS2 activity, Mean (0 nM = 100)","[1]; inhibitor 166.5 nM, positive ctrl",18.9416
same,"Residual TMPRSS2 activity, Mean (0 nM = 100)","[1]; inhibitor 1665 nM, 0 min in cell culture medium",-1.499
same,"Residual TMPRSS2 activity, Mean (0 nM = 100)","[1]; inhibitor 1665 nM, 30 min in cell culture medium",5.536
same,"Residual TMPRSS2 activity, Mean (0 nM = 100)","[1]; inhibitor 1665 nM, 60 min in cell culture medium",0.2889
same,"Residual TMPRSS2 activity, Mean (0 nM = 100)","[1]; inhibitor 1665 nM, 120 min in cell culture medium",-1.86
same,"Residual TMPRSS2 activity, Mean (0 nM = 100)","[1]; inhibitor 1665 nM, 24 h in cell culture medium",-0.886
same,"Residual TMPRSS2 activity, Mean (0 nM = 100)","[1]; inhibitor 1665 nM, 10 d in cell culture medium",10.1282
same,"Residual TMPRSS2 activity, Mean (0 nM = 100)","[1]; inhibitor 1665 nM, positive ctrl",0.02381
same,"thrombin activity, Mean (Fig. 2c)",[2]; 0.02 nM,98.5684
same,"thrombin activity, Mean (Fig. 2c)",[2]; 0.04 nM,95.6033
same,"thrombin activity, Mean (Fig. 2c)",[2]; 0.2 nM,102.761
same,"thrombin activity, Mean (Fig. 2c)",[2]; 2 nM,99.4379
same,"thrombin activity, Mean (Fig. 2c)",[2]; 20 nM,100.358
same,"thrombin activity, Mean (Fig. 2c)",[2]; 200 nM,86.605
